Test results published in patent US10647721B2, “Bicyclic heteroaryl derivatives” (Hoffmann-La Roche Inc., priority 2016, dated 2020).

tested on: γ-secretase; assay: Cellular γ-secretase assay (inhibition of Aβ42 secretion, AlphaLisa); assay type: cell-based; settings: human neuroglioma H4 cells overexpressing human APP695 Swedish double mutation, 24 hr compound incubation
Experimental: Cellular γ-Secretase Assay
Human neuroglioma H4 cells overexpressing human APP695 with the Swedish double mutation (K595N/M596L) were plated at 30,000 cells/well/100 μl in 96-well plates in IMDM media containing 10% FCS, 0.2 mg/l Hygromycin B and incubated at 37° C., 5% CO2.
3-4 hr post plating, compounds are a diluted in media and 50 μl is added as 1.5-fold concentrate to achieve the final concentration. Compound incubation is performed for 24 hr. Final doses typically range from 4 μm down to 0.0013 μm in half-log steps resulting in a eight point dose response curve.
Appropriate controls using vehicle only and reference compound were applied to this assay. The final concentration of Me2SO was 0.4%.
After incubation at 37° C., 5% CO2, the supernatant was subjected to quantification of secreted Aβ42 by the means of an AlphaLisa assay kit (Human Amyloid beta 1-42 Kit: Cat # AL203C, Perkin Elmer). 20 μl of the cell culture supernatant was transferred to an assay plate. Then 10 μl of a mixture of the AlphaLisa coupled capture antibody and the biotinylated detection antibody was added and incubated for 3 hours at room temperature while softly shaking the assay plate. After a further addition of 20 μl of the Donor beads the assay plate was incubated for 30 min at room temperature and constant shaking without exposure to direct light. The assay plate was then read on a Paradigm AlphaLisa Reader using the build-in program with excitation at 680 nm and emission at […].
The measured signals were then used to calculate IC50 values for inhibition of Aβ42 secretion by nonlinear regression fit analysis using XLfit 5.3 software (IDBS).

Compound | EC50
Cc1ncn(-c2ccc(Nc3nc4n(n3)CCCN4c3ccc(F)c(F)c3)cc2C#N)n1 [Example 30, 5-[[4-(3,4-difluorophenyl)-6,7-dihydro-5H-[1,2,4]triazolo[1,5-a]pyrimidin-2-yl]amino]-2-(3-methyl-1,2,4-triazol-1-yl)benzonitrile] | 25.1 nM
COc1cc(Nc2nc3n(n2)CCCN3c2cccc(F)c2)ccc1-n1cnc(C)n1 [Example 31, 4-(3-fluorophenyl)-N-[3-methoxy-4-(3-methyl-1,2,4-triazol-1-yl)phenyl]-6,7-dihydro-5H-[1,2,4]triazolo[1,5-a]pyrimidin-2-amine] | 30.4 nM
COc1cc(Nc2nc3n(n2)CCCN3c2cccc(F)c2)ccc1-n1cnc(Cl)c1 [Example 32, N-[4-(4-chloroimidazol-1-yl)-3-methoxy-phenyl]-4-(3-fluorophenyl)-6,7-dihydro-5H-[1,2,4]triazolo[1,5-a]pyrimidin-2-amine] | 14.1 nM
COc1cc(Nc2nc3n(n2)CCCN3c2ccc(F)cc2)ccc1-n1cnc(C)n1 [Example 33, 4-(4-fluorophenyl)-N-[3-methoxy-4-(3-methyl-1,2,4-triazol-1-yl)phenyl]-6,7-dihydro-5H-[1,2,4]triazolo[1,5-a]pyrimidin-2-amine] | 35.2 nM
COc1cc(Nc2nc3n(n2)CCCN3c2ccc(F)cc2)ccc1-n1cnc(Cl)c1 [Example 34, N-[4-(4-chloroimidazol-1-yl)-3-methoxy-phenyl]-4-(4-fluorophenyl)-6,7-dihydro-5H-[1,2,4]triazolo[1,5-a]pyrimidin-2-amine] | 10 nM
N#Cc1cc(Nc2nc3n(n2)CCCN3c2ccc(F)cc2)ccc1-n1cnc(Cl)c1 [Example 35, 2-(4-chloroimidazol-1-yl)-5-[[4-(4-fluorophenyl)-6,7-dihydro-5H-[1,2,4]triazolo[1,5-a]pyrimidin-2-yl]amino]benzonitrile] | 21 nM
Fc1ccc(N2CCCn3nc(Nc4ccc(-n5cnc(Cl)c5)c(F)c4)nc32)cc1 [Example 36, N-[4-(4-chloroimidazol-1-yl)-3-fluoro-phenyl]-4-(4-fluorophenyl)-6,7-dihydro-5H-[1,2,4]triazolo[1,5-a]pyrimidin-2-amine] | 39.9 nM
Cc1ncn(-c2ccc(Nc3nc4n(n3)CCCN4c3ccc(F)cc3)cc2OC(F)F)n1 [Example 37, N-[3-(difluoromethoxy)-4-(3-methyl-1,2,4-triazol-1-yl)phenyl]-4-(4-fluorophenyl)-6,7-dihydro-5H-[1,2,4]triazolo[1,5-a]pyrimidin-2-amine] | 34.2 nM
COc1cc(Nc2nc3n(n2)CCCN3c2ccc(F)cc2)cnc1-n1cnc(Cl)c1 [Example 38, N-[6-(4-chloroimidazol-1-yl)-5-methoxy-3-pyridyl]-4-(4-fluorophenyl)-6,7-dihydro-5H-[1,2,4]triazolo[1,5-a]pyrimidin-2-amine] | 13.8 nM
Cc1ncc(-c2ncc(Nc3nc4n(n3)CCCN4c3ccc(F)cc3)cc2F)o1 [Example 39, N-[5-fluoro-6-(2-methyloxazol-5-yl)-3-pyridyl]-4-(4-fluorophenyl)-6,7-dihydro-5H-[1,2,4]triazolo[1,5-a]pyrimidin-2-amine] | 17.5 nM
COc1cc(Nc2nc3n(n2)CCCN3c2ccc(F)c(F)c2)ccc1-n1cnc(F)c1 [Example 40, 4-(3,4-difluorophenyl)-N-[4-(4-fluoroimidazol-1-yl)-3-methoxy-phenyl]-6,7-dihydro-5H-[1,2,4]triazolo[1,5-a]pyrimidin-2-amine] | 20.3 nM
COc1cc(Nc2nc3n(n2)CCCN3c2cc(F)cc(F)c2)ccc1-n1cnc(C)n1 [Example 41, 4-(3,5-difluorophenyl)-N-[3-methoxy-4-(3-methyl-1,2,4-triazol-1-yl)phenyl]-6,7-dihydro-5H-[1,2,4]triazolo[1,5-a]pyrimidin-2-amine] | 14.2 nM
COc1cc(Nc2nc3n(n2)CCCN3c2cc(F)cc(F)c2)ccc1-n1cnc(Cl)c1 [Example 42, N-[4-(4-chloroimidazol-1-yl)-3-methoxy-phenyl]-4-(3,5-difluorophenyl)-6,7-dihydro-5H-[1,2,4]triazolo[1,5-a]pyrimidin-2-amine] | 7.4 nM
COc1cc(Nc2nc3n(n2)CCCN3c2ccc(F)cc2)ccc1-c1cnc(C)o1 [Example 43, 4-(4-fluorophenyl)-N-[3-methoxy-4-(2-methyloxazol-5-yl)phenyl]-6,7-dihydro-5H-[1,2,4]triazolo[1,5-a]pyrimidin-2-amine] | 12.6 nM
COc1cc(Nc2nc3n(n2)CCN3c2ccc(C(F)(F)F)cc2)ccc1-n1cnc(Cl)c1 [Example 44, N-[4-(4-chloroimidazol-1-yl)-3-methoxy-phenyl]-4-[4-(trifluoromethyl)phenyl]-5,6-dihydroimidazo[1,2-b][1,2,4]triazol-2-amine] | 65.4 nM
COc1cc(Nc2nc3n(n2)CCN3c2ccc(F)c(F)c2F)ccc1-n1cnc(Cl)c1 [Example 45, N-[4-(4-chloroimidazol-1-yl)-3-methoxy-phenyl]-4-(2,3,4-trifluorophenyl)-5,6-dihydroimidazo[1,2-b][1,2,4]triazol-2-amine] | 30 nM
COc1cc(Nc2nc3n(n2)CCN3c2ccc(F)c(F)c2)ccc1-n1cnc(Cl)c1 [Example 46, N-[4-(4-chloroimidazol-1-yl)-3-methoxy-phenyl]-4-(3,4-difluorophenyl)-5,6-dihydroimidazo[1,2-b][1,2,4]triazol-2-amine] | 40.4 nM
Cc1cn(-c2ccc(Nc3nc4n(n3)CCCN4c3ccc(F)c(F)c3)cc2)nn1 [Example 47, 4-(3,4-difluorophenyl)-N-[4-(4-methyltriazol-1-yl)phenyl]-6,7-dihydro-5H-[1,2,4]triazolo[1,5-a]pyrimidin-2-amine] | 52.1 nM
COc1cc(Nc2nc3n(n2)CCCN3c2ccccc2)ccc1-n1cnc(C)n1 [Example 48, N-[3-methoxy-4-(3-methyl-1,2,4-triazol-1-yl)phenyl]-4-phenyl-6,7-dihydro-5H-[1,2,4]triazolo[1,5-a]pyrimidin-2-amine] | 94.7 nM
